Reference: patent publication US10202350B2, “MCT4 inhibitors for treating disease” (Vettore, LLC, priority 2015, dated 2019)

What was measured:
Assay type in all cases: cell-based
MCT1 = MCT1 (Homo sapiens (Human), UniProt P53985); assay: MCT1-mediated lactate transport in BT20 breast cancer cells; conditions: native MCT1, 10 mM L-lactate
Experimental: (§1) 10 μL of a 30 mM DMSO stock of BCECF-AM ester (Life Technologies) is added and the cells are incubated at 37° C. for 5 min. The cells are pelleted (300 g, 5 min), washed once with 1 mL Tyrode's Solution, pH 7.4, re-pelleted (300 g, 5 min), and resuspended in 1 mL Tyrode's Solution, pH 7.4.
(§2) 2.5 μL BCECF-loaded cells, along with either 10 μL DMSO or 100×compound in DMSO, are added to 937.5 μL of Tyrode's Solution in a quartz 1.0 mL cuvette (PerkinElmer, B0631116). […] After establishing baseline BCECF fluorescence (around 10-20 s), 50 μL of 1 M sodium L-lactate (Sigma-Aldrich) is added to the cuvette (final concentration: 50 mM) and rapidly mixed. The time-dependent decrease in BCECF fluorescence (490/440 ratio) may be fit to an exponential decay curve (Prism GraphPad) to determine the rate of lactate transport.
Assay 4: MCT1-Mediated Lactate Transport in BT20 Breast Cancer Cells.
Preparation of BCECF loaded cells are as described for Assay 1. Lactate transport assay is as described for Assay 1, except 10 mM L-lactate (rather than 50 mM) is added.

MCT4 [1] = target: T1, MCT4 (Homo sapiens (Human), UniProt O15427); assay: MCT4-mediated lactate transport in NCI-H358 lung adenocarcinoma cells; conditions: native MCT4, 50 mM L-lactate
T1 sequence (O15427 whole entry, looked up): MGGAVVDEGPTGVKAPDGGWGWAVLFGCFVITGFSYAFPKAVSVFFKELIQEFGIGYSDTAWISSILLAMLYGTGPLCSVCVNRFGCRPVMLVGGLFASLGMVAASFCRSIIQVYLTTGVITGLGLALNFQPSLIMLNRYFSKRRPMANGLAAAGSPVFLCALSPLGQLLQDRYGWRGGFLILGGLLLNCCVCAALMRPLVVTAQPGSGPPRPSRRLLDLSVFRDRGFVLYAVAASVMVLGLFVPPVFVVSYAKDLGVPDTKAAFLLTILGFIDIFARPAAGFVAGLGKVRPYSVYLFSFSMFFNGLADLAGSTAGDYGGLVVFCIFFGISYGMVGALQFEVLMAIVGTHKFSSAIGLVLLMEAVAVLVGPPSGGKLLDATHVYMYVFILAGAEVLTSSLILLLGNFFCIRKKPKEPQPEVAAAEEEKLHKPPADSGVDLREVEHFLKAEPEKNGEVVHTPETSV
T1 sequence (P35613 whole entry partner, looked up): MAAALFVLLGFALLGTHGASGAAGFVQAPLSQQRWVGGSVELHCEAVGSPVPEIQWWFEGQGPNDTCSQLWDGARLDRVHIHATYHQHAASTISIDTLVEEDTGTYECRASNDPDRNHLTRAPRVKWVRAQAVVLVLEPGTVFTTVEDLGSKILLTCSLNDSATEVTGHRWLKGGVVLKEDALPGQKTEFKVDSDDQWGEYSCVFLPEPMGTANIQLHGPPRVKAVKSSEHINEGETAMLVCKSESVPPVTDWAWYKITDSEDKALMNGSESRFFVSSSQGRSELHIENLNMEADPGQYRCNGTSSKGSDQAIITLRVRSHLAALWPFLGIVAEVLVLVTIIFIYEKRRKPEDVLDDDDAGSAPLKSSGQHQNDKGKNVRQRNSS
Experimental: as §1, with “Cells (˜7×10^6) are trypsinized (0.05% Trypsin-EDTA), pelleted (300 g, 5 min), and resuspended in 1 mL Tyrode's Solution, pH 7.4 (119 mM NaCl, 5 mM KCl, 25 mM HEPES, pH 7.4, 2 mM CaCl2, 2 mM MgCl2, 6 g/L glucose). 10” for “10”
2.5 μL BCECF-loaded cells, along with either 10 μL DMSO or 100×compound in DMSO, are added to 937.5 μL of Tyrode's Solution in a quartz 1.0 mL cuvette (PerkinElmer, B0631116). Fluorescence measurements are performed on a PerkinElmer LS55 fluorescence spectrometer with dual excitation wavelengths achieved using a filter wheel (FL Winlab program: Fast Filter; Excitation 490/440; Emission 535). After establishing baseline BCECF fluorescence (around 10-20 s), 50 μL of 1 M sodium L-lactate (Sigma-Aldrich) is added to the cuvette (final concentration: 50 mM) and rapidly mixed. The time-dependent decrease in BCECF fluorescence (490/440 ratio) may be fit to an exponential decay curve (Prism GraphPad) to determine the rate of lactate transport.
Assay 2: MCT4-Mediated Lactate Transport in NCI-H358 Lung Adenocarcinoma Cells.
NCI-H358 lung adenocarcinoma cells may be used to measure MCT4 activity in cells with high native levels of MCT4 and low levels of MCT1 and are known to those with skill in the art. Preparation of BCECF-loaded cells and lactate transport activity may be determined as described for Assay 1.

MCT4 [2] = target: T1, MCT4; assay: Lactate transport in MCT4-expressing MDA-MB-453 breast cancer cells (BCECF); conditions: MDA-MB-453 cells stably expressing MCT4; 50 mM L-lactate
Experimental: Assay 1: Lactate Transport in MCT4-Expressing MDA-MB-453 Breast Cancer Cells. […] The following is an exemplary procedure for assaying MCT4 activity of the compounds of Formula (I). Preparing BCECF-Loaded Cells: […] The cells are pelleted (300 g, 5 min), washed once with 1 mL Tyrode's Solution, pH 7.4, re-pelleted (300 g, 5 min), and resuspended in 1 mL Tyrode's Solution, pH 7.4. Lactate Transport Assay: […] Fluorescence measurements are performed on a PerkinElmer LS55 fluorescence spectrometer with dual excitation wavelengths achieved using a filter wheel (FL Winlab program: Fast Filter; […] Emission 535). After establishing baseline BCECF fluorescence (around 10-20 s), 50 μL of 1 M sodium L-lactate (Sigma-Aldrich) is added to the cuvette (final concentration: 50 mM) and rapidly mixed.

MCT4 [3] = target: T1, MCT4; assay: MCT4-mediated lactate transport in MDA-MB-231 breast cancer cells; conditions: MDA-MB-231 cells, native MCT4; 50 mM L-lactate
Experimental: as §1, §2
Preparation of BCECF-loaded cells and lactate transport activity may be determined as described for Assay 1.

Chain of MCT1 (P53985 whole entry): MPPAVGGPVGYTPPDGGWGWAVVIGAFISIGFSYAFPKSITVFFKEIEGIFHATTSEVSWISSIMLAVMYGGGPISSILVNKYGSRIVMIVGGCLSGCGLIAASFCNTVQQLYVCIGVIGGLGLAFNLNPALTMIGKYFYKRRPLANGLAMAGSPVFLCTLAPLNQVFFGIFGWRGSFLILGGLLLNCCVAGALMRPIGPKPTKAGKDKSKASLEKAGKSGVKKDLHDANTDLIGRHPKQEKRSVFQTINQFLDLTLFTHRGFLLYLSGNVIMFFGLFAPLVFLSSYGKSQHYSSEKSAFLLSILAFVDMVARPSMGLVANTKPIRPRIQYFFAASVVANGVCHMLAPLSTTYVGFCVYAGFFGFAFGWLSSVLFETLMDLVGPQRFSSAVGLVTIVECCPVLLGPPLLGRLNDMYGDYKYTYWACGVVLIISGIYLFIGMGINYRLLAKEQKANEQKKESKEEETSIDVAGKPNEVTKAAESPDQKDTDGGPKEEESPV
Chain of MCT1 (P35613 140-385 partner): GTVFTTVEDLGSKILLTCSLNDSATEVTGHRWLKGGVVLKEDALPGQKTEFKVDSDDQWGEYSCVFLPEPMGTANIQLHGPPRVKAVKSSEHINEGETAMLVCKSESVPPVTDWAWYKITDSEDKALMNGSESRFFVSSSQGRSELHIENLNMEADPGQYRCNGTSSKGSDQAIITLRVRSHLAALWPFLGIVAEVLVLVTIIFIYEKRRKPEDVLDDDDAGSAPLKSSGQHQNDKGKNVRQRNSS

SMILES | IC50 (MCT1; Table 2) | IC50 (MCT4 [1]) | IC50 (MCT4 [2]) | IC50 (MCT1; Table 3) | IC50 (MCT4 [3])
CC(C)(OCc1cc(-c2ccccc2)n(Cc2cccc(Cl)c2)n1)C(=O)O [Example 1, 2-[[1-[(3-Chlorophenyl)methyl]-5-phenyl-pyrazol-3-yl]methoxy]-2-methyl-propanoic Acid] | 50000 nM | 140 nM | 340 nM |  | 
CC(C)(OCc1cc(-c2ccc(Cl)cc2)n(Cc2ccc(Cl)cc2)n1)C(=O)O [Example 2] | 29000 nM | 240 nM | 450 nM |  | 
CC(C)(OCc1cc(-c2ccc(Cl)cc2)n(Cc2ccccc2Cl)n1)C(=O)O [Example 3, 2-[[5-(4-Chlorophenyl)-1-[(2-chlorophenyl)methyl]pyrazol-3-yl]methoxy]-2-methyl-propanoic acid] | 25000 nM | 60 nM | 72 nM |  | 
CC(C)(OCc1cc(-c2ccc(F)cc2)n(Cc2ccccc2Cl)n1)C(=O)O [Example 4, 2-[[1-[(2-Chlorophenyl)methyl]-5-(4-fluorophenyl)pyrazol-3-yl]methoxy]-2-methyl-propanoic acid] | 33000 nM | 54 nM | 68 nM |  | 
CC(C)(OCc1cc(-c2ccc(Cl)cc2)n(Cc2ccc(Cl)cc2Cl)n1)C(=O)O [Example 5, 2-[[5-(4-Chlorophenyl)-1-[(2,4-dichlorophenyl)methyl]pyrazol-3-yl]methoxy]-2-methyl-propanoic acid] | 1800 nM | 63 nM | 160 nM |  | 
O=C(O)COCc1cc(-c2ccc(Cl)cc2)n(Cc2ccc(Cl)cc2Cl)n1 [Example 6, 2-[[5-(4-Chlorophenyl)-1-[(2,4-dichlorophenyl)methyl]pyrazol-3-yl]methoxy]acetic acid] | 6600 nM | 4600 nM | 2400 nM |  | 
CC(C)(OCc1cc(-c2ccc(Cl)cc2)n(Cc2ccccc2)n1)C(=O)O [Example 7, 2-[[1-Benzyl-5-(4-Chlorophenyl)pyrazol-3-yl]methoxy]-2-methyl-propanoic acid] | 70000 nM | 460 nM | 720 nM |  | 
CC(C)(OCc1cc(-c2ccccc2)n(Cc2ccccc2Cl)n1)C(=O)O [Example 8, 2-[[1-[(2-Chlorophenyl)methyl]-5-phenyl-pyrazol-3-yl]methoxy]-2-methyl-propanoic acid] | 46000 nM | 81 nM | 69 nM |  | 
CC(C)(OCc1cc(-c2ccccc2Cl)n(Cc2ccccc2Cl)n1)C(=O)O [Example 9, 2-[[5-(2-Chlorophenyl)-1-[(2-chlorophenyl)methyl]pyrazol-3-yl]methoxy]-2-methyl-propanoic acid] | 39000 nM | 340 nM | 320 nM |  | 
CC(C)(OCc1cc(-c2cccc(Cl)c2)n(Cc2ccccc2Cl)n1)C(=O)O [Example 10, 2-[[5-(3-Chlorophenyl)-1-[(2-chlorophenyl)methyl]pyrazol-3-yl]methoxy]-2-methyl-propanoic acid] | 8800 nM | 33 nM | 21 nM |  | 
Cc1cccc(-c2cc(COC(C)(C)C(=O)O)nn2Cc2ccccc2Cl)c1 [Example 11, 2-[[1-[(2-Chlorophenyl)methyl]-5-(m-tolyl)pyrazol-3-yl]methoxy]-2-methyl-propanoic acid] | 29000 nM | 25 nM | 45 nM |  | 

The remaining lines, values ahead:

IC50 (MCT1; Table 2) | IC50 (MCT4 [1]) | IC50 (MCT4 [2]) | IC50 (MCT1; Table 3) | IC50 (MCT4 [3]) | SMILES
58000 nM | 49 nM | 38 nM |  |  | CC(C)(OCc1cc(-c2cccc(F)c2)n(Cc2ccccc2Cl)n1)C(=O)O [Example 12, 2-[[1-[(2-Chlorophenyl)methyl]-5-(3-fluorophenyl)pyrazol-3-yl]methoxy]-2-methyl-propanoic acid]
17000 nM | 22 nM | 20 nM |  |  | CC(C)(OCc1cc(-c2cccc(C(F)(F)F)c2)n(Cc2ccccc2Cl)n1)C(=O)O [Example 13, 2-[[1-[(2-Chlorophenyl)methyl]-5-[3-(trifluoromethyl)phenyl]pyrazol-3-yl]methoxy]-2-methyl-propanoic acid]
> 33000 nM | 440 nM | 900 nM |  |  | CC(C)(OCc1cc(C2CCCCC2)n(Cc2ccccc2Cl)n1)C(=O)O [Example 15, 2-[[1-[(2-Chlorophenyl)methyl]-5-cyclohexyl-pyrazol-3-yl]methoxy]-2-methyl-propanoic acid]
73000 nM | 640 nM | 1000 nM |  |  | CC(C)(OCc1cc(C2CCCC2)n(Cc2ccccc2Cl)n1)C(=O)O [Example 16, 2-[[1-[(2-Chlorophenyl)methyl]-5-cyclopentyl-pyrazol-3-yl]methoxy]-2-methyl-propanoic acid]
1200 nM | 860 nM | 440 nM |  |  | O=C(O)C1(OCc2cc(-c3ccc(Cl)cc3)n(Cc3ccccc3Cl)n2)CC1 [Example 17, 1-[[5-(4-Chlorophenyl)-1-[(2-chlorophenyl)methyl]pyrazol-3-yl]methoxy]cyclopropanecarboxylic acid]
45000 nM | 4200 nM | 5300 nM |  |  | CC(C)(OCc1cc(-c2nccs2)n(Cc2ccccc2Cl)n1)C(=O)O [Example 18, 2-[[1-[(2-Chlorophenyl)methyl]-5-thiazol-2-yl-pyrazol-3-yl]methoxy]-2-methyl-propanoic acid]
57000 nM | 160 nM | 110 nM |  |  | CC(C)(OCc1cc(-c2ccc(Cl)cc2)n(Cc2ccccc2F)n1)C(=O)O [Example 19, 2-[[5-(4-Chlorophenyl)-1-[(2-fluorophenyl)methyl]pyrazol-3-yl]methoxy]-2-methyl-propanoic acid]
7900 nM | 22000 nM | 17000 nM |  |  | CC(C)(OCc1cc(-c2ccc(Cl)cc2)n(Cc2ccccc2Cl)n1)C(N)=O [Example 20, 2-[[5-(4-Chlorophenyl)-1-[(2-chlorophenyl)methyl]pyrazol-3-yl]methoxy]-2-methyl-propanamide]
300000 nM | 48000 nM | 35000 nM |  |  | CC(C)(OCc1cc(-c2ccc(Cl)cc2)n(Cc2ccncc2)n1)C(=O)O [Example 21, 2-[[5-(4-chlorophenyl)-1-(4-pyridylmethyl)pyrazol-3-yl]methoxy]-2-methyl-propanoic acid]
 | 2100 nM | 1500 nM |  |  | CC(C)(OCc1cc(-c2ccc(Cl)cc2)n(Cc2cccnc2)n1)C(=O)O [Example 23, 2-[[5-(4-Chlorophenyl)-1-(3-pyridylmethyl)pyrazol-3-yl]methoxy]-2-methyl-propanoic acid]
 |  |  | 6600 nM | 6300 nM | COc1cccc(-c2cc(COC(C)(C)C(=O)NS(C)(=O)=O)nn2Cc2ccccc2Cl)c1 [Example 81, 2-[[1-[(2-chlorophenyl)methyl]-5-(3-methoxyphenyl)pyrazol-3-yl]methoxy]-2-methyl-N-methylsulfonyl-propanamide]
 |  |  | 16000 nM | 460 nM | COC(=O)C(C)(C)OCc1cc(-c2cccc(OC)c2)n(Cc2ccccc2Cl)n1 [Example 82, Methyl 2-[[1-[(2-chlorophenyl)methyl]-5-(3-methoxyphenyl)pyrazol-3-yl]methoxy]-2-methyl-propanoate]
